Source: US20120093917A1, “METNASE AND INTNASE INHIBITORS AND THEIR USE IN TREATING CANCER” (priority 2009, published 2012)

Experiments:
[1] = system: human Pancreatic cancer cell line BXPC3; test: Colony formation assay, pancreatic cancer cell line BXPC3; type: cell-based; settings: for potentiation of gemcitabine (surviving colonies) / activity on their own against the pancreatic cancer cells (surviving colonies): BXPC3, FIG. 16; for potentiation of gemcitabine (surviving colonies): 2 μM inhibitor + 0.3 μg/ml gemcitabine, 18 hrs, normalized to gemcitabine; for activity on their own against the pancreatic cancer cells (surviving colonies): 2 μM inhibitor, 18 hrs treatment, colonies after 14 days, normalized to DMSO
Method: (§1) The human Pancreatic cancer cell line BXPC3 was plated (4000 cells per plate with a ˜10% plating efficiency) in 10 cm dishes, using 10 ml of RPMI media (always with 10% FBS) per plate, and placed in a […] incubator (5% CO2) for 24 hrs. After 24 hrs, each plate was treated with one or a combination of the following agents: DMSO (0.2% in solution), 0.3 μg/ml of gemcitabine (dissolved in 1×PBS), and/or 2 μM of each Metnase/Intnase inhibitor (dissolved in DMSO). When the DMSO, gemcitabine, and/or inhibitors were added, the plates were swirled several times to assure mixing. After the agents were added to the RPMI, the plates were put back into the incubators for 18 hrs. Following 18 hrs treatment, the media was removed and the cells were washed twice with 1×PBS. Ten ml of fresh RPMI with 10% FBS was added and the cells were placed back into the incubator for 14 days. After the incubation period that will allow surviving cells to form colonies, the media was discarded and surviving colonies were stained with methylene blue. Colonies, a reflection of a single surviving cell that expanded, were counted to measure survival. All experiments were run in triplicate. Experiments were normalized to either DMSO (black asterices) or gemcitabine (red asterices).

[2] = system: cancer cells; test: Summary statements: cytotoxicity for cancer cells alone and with chemotherapy; type: cell-based; settings: summary statement referring to figures
Method: as §1
(§2) The human colon cancer cell line SW48 was plated (1000 cells per plate with a ˜20% plating efficiency) in 10 cm dishes, using 10 ml of DMEM media (always with 10% FBS) per plate, and placed in a […] incubator (5% CO2) for 24 hrs. After 24 hr, each plate was treated with one or a combination of the following agents: DMSO (0.2% in solution), 3 μM 5-fluorouracil (5FU, dissolved in 1×PBS), and/or 2 μM of each Metnase/intnase inhibitor (dissolved in DMSO). When the DMSO, 5FU, and/or inhibitors were added, the plates were swirled several times to assure mixing. After agents were added to the DMEM, the plates were put back into the incubators for 18 hr. Following 18 hr treatment, the media was removed and the cells were washed twice with 1×PBS. Ten milliliters of fresh DMEM was added and the cells were placed back into the incubator for 7-14 days. After the incubation period that will allow surviving cells to grow and form colonies, media was discarded and surviving colonies were stained with methylene blue. Colonies, a reflection of a single surviving cell that expanded, were counted to measure survival. All experiments were run in triplicate. Experiments were normalized to either DMSO (black asterices) or 5FU (red asterices).
(§3) The human myeloid cell line KG-1 was grown in RPMI1640 with 10% FBS. The small cell lung cancer cell line CRL5898 was grown in HITES medium (Dulbecco's medium: Ham's F12, 50:50 mix, Insulin 0.005 mg/ml Transferrin 0.01 mg/ml Sodium selenite 30 nM Hydrocortisone 10 nM beta-estradiol 10 nM HEPES 10 mM L-glutamine 2 mM (in addition to that in the base medium)). Both cell lines were seeded at 10,000 cells/ml in the appropriate medium in 6 well plates. The Chem Div compounds were resuspended as 5 mM stock solutions in DMSO. The Chem Div compounds were added alone at 2 uM and 5 uM or in combination with VP-16 (also called etoposide) at 0.05 uM. DMSO was added to the control wells. Cells were plated and treated in triplicate and counted daily for 4 days.

[3] = system: CYP3A; settings: cited from earlier work
[4] = in vivo; cited from earlier work
[5] = system: human colon cancer cell line SW48; test: Colony formation assay, colon cancer cell line SW48; type: cell-based; settings: FIG. 17; for activity on their own against the colon cancer cells (surviving colonies): 2 μM inhibitor, 18 hr treatment, colonies after 7-14 days, normalized to DMSO
Method: as §2

[6] = system: human myeloid cell line KG-1; test: Leukemia cell line KG-1 growth curve, alone or with VP-16; type: cell-based; settings: for effect of compound alone on KG-1 growth, lower/low dose: lower (low) dose of compound (added at 2 uM and 5 uM); for potentiation of low dose VP-16 on KG-1 growth, lower/low dose of compound: lower (low) dose of compound + VP-16 0.05 uM
Method: as §3

[7] = system: small cell lung cancer cell line CRL5898; test: Small cell lung cancer cell line CRL5898 growth, alone or with VP-16; type: cell-based; settings: summary table / FIG. 34
Method: as §3

[8] = system: human DNA polymerases; settings: cited from earlier work
[9] = biological target: 166 enzymes, transporters and receptors; settings: read-out: IC50 in screening panel, all assays; cited from earlier work
[10] = biological target: ABCB1 (MDR-1; P-gp) (Homo sapiens, UniProt P08183); settings: not told; cited from earlier work
[11] = system: cytochrome P450 enzymes; settings: cited from earlier work

Sequence of ABCB1 (MDR-1; P-gp) (P08183 whole entry, species assumed): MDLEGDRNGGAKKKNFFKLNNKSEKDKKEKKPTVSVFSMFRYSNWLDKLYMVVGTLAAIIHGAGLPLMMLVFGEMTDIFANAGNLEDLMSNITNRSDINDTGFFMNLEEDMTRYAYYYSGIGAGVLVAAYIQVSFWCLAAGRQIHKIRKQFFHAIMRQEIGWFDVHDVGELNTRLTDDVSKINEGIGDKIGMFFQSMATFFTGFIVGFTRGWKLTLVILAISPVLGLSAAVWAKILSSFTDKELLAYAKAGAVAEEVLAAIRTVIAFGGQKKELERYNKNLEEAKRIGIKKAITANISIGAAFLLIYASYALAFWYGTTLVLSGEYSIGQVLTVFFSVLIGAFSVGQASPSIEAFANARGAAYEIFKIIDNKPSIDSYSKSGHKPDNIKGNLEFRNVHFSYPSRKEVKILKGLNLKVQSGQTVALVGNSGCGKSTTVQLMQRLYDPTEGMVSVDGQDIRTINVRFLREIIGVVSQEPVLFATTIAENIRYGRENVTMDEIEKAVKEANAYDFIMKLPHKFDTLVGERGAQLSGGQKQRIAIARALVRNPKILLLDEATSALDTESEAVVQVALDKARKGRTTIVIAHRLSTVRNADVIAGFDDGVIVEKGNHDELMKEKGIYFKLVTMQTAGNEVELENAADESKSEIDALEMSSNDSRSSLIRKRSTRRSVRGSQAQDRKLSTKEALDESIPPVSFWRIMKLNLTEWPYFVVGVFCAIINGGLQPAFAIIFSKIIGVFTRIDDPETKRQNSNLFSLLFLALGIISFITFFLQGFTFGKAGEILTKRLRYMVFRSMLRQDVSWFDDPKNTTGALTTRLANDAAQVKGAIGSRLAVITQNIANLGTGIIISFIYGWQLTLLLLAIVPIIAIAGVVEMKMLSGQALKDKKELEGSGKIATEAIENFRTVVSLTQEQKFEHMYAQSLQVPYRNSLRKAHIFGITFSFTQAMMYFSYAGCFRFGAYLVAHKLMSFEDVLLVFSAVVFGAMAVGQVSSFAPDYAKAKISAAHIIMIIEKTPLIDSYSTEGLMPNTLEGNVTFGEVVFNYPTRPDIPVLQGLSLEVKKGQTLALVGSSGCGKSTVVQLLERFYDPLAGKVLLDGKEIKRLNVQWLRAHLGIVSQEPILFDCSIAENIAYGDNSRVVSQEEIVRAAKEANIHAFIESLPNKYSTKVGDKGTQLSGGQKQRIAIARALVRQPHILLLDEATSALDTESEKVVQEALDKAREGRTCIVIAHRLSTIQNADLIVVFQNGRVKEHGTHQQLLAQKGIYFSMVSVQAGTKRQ

Structure (SMILES): COc1cc2c(cc1Cc1cccc(Cl)c1F)c(=O)c(C(=O)O)cn2[C@H](CO)C(C)C [Elvitegravir, 6-[(3-chloro-2-fluorophenyl)methyl]-1-[(2S)-1-hydroxy-3-methylbutan-2-yl]-7-methoxy-4-oxoquinoline-3-carboxylic acid, reference compound]
- potentiation of gemcitabine (surviving colonies) [1]: potentiate gemcitabine
- activity on their own against the pancreatic cancer cells (surviving colonies) [1]: activity on their own
- cytotoxicity for cancer cells, compound alone [2]: cytotoxic for cancer cells alone
- CYP3A induction [3]: moderate CYP3A inducer
- Serum half-life [4]: 3 h

Structure (SMILES): CC(C)n1cc(C(=O)O)c(=O)c2ccccc21 [5483-0023]
- potentiation of gemcitabine (surviving colonies) [1]: potentiate gemcitabine
- activity on their own against the pancreatic cancer cells (surviving colonies) [1]: activity on their own
- BxPC3 Pancreatic activity ([1]; summary table / FIG. 34): Active
- potentiation of 5FU (surviving colonies) ([5]; 2 μM inhibitor + 3 μM 5-fluorouracil, 18 hr, normalized to 5FU): potentiate 5FU
- activity on their own against the colon cancer cells (surviving colonies) [5]: activity on their own
- effect of compound alone on KG-1 growth, high dose ([6]; high (higher) dose of compound (added at 2 uM and 5 uM), counted daily for 4 days): decreased KG-1 leukemia cell growth especially with longer treatment
- potentiation of low dose VP-16 on KG-1 growth, high dose of compound ([6]; high (higher) dose of compound + VP-16 0.05 uM, counted daily for 4 days): potentiated the anti-proliferative effect of low dose VP-16
- effect of compound alone on KG-1 growth, lower/low dose ([6]; counted daily for 4 days): decreased KG-1 leukemia cell growth, similar to low dose VP-16
- potentiation of low dose VP-16 on KG-1 growth, lower/low dose of compound ([6]; counted daily for 4 days): potentiated the anti-proliferative effect of low dose VP-16
- KG-1 Leukemia cooperativity with VP-16 ([6]; summary table / FIG. 34): Cooperativity with VP-16
- KG-1 Leukemia potency ([6]; summary table / FIG. 34): Potency in uM
- CLR5898 Small Cell Lung Cancer cooperativity with VP-16 [7]: No or very
- CLR5898 Small Cell Lung Cancer potency [7]: Potency in uM
- cytotoxicity for cancer cells with chemotherapy agents (potentiation) [2]: increased the cytotoxicity of chemotherapy when added
- cytotoxicity for cancer cells, compound alone [2]: cytotxoic for cancer cells alone

Structure (SMILES): O=C(O)c1cc(=O)c2ccccc2o1 [R092-0025]
- potentiation of gemcitabine (surviving colonies) [1]: potentiate gemcitabine
- activity on their own against the pancreatic cancer cells (surviving colonies) [1]: activity on their own
- activity on their own against the colon cancer cells (surviving colonies) [5]: activity on their own
- cytotoxicity for cancer cells with chemotherapy agents (potentiation) [2]: increased the cytotoxicity of chemotherapy when added
- cytotoxicity for cancer cells, compound alone [2]: cytotxoic for cancer cells alone

Structure (SMILES): O=C(O)c1ccc(N2C(=O)Nc3ccccc3N2O)cc1O [D0045-0007]
- potentiation of gemcitabine (surviving colonies) [1]: potentiate gemcitabine
- activity on their own against the pancreatic cancer cells (surviving colonies) [1]: activity on their own
- activity on their own against the colon cancer cells (surviving colonies) [5]: activity on their own
- effect of compound alone on KG-1 growth, lower/low dose ([6]; counted daily for 4 days): decreased KG-1 leukemia cell growth compared to control
- potentiation of low dose VP-16 on KG-1 growth, lower/low dose of compound ([6]; counted daily for 4 days): potentiated the anti-proliferative effect of low dose VP-16
- cytotoxicity for cancer cells with chemotherapy agents (potentiation) [2]: increased the cytotoxicity of chemotherapy when added
- cytotoxicity for cancer cells, compound alone [2]: cytotxoic for cancer cells alone

Structure (SMILES): Cc1nnc(C(=O)NC(C)(C)C2=N/C(=C(\O)NCc3ccc(F)cc3)C(=O)C(=O)N2C)o1 [Raltegravir, N-[2-[(4Z)-4-[[(4-fluorophenyl)methylamino]-hydroxymethylidene]-1-methyl-5,6-dioxopyrimidin-2-yl]propan-2-yl]-5-methyl-1,3,4-oxadiazole-2-carboxamide]
- potentiation of gemcitabine (surviving colonies) [1]: potentiate gemcitabine
- activity on their own against the pancreatic cancer cells (surviving colonies) [1]: activity on their own
- activity on their own against the colon cancer cells (surviving colonies) [5]: activity on their own
- effect of compound alone on KG-1 growth, lower/low dose ([6]; counted daily for 4 days): little effect on leukemia cell growth
- potentiation of low dose VP-16 on KG-1 growth, lower/low dose of compound ([6]; counted daily for 4 days): potentiated the anti-proliferative effect of low dose VP-16
- inhibition of human DNA polymerases [8]: does not inhibit
- IC50 [9]: > 10 µM
- inhibitor of ABCB1 (MDR-1; P-gp) [10]: not an inhibitor
- substrate, inducer or inhibitor of cytochrome P450 enzymes [11]: not a substrate, nor an inducer or inhibitor
- Serum half-life [4]: 9 h
